Reference: ChEMBL document CHEMBL4507291 (2021)

Legend:
[1] = target: Casein kinase I isoform epsilon (Homo sapiens) (UniProt P49674); assay: CSNK1E (CK1 epsilon) Kinase screen; settings: Compound concentration 1.0 uM
[2] = target: Tyrosine-protein kinase Lck (Homo sapiens) (UniProt P06239); assay: LCK Kinase screen; settings: Compound concentration 1.0 uM
[3] = target: Mitogen-activated protein kinase kinase kinase 14 (Homo sapiens) (UniProt Q99558); assay: MAP3K14 (NIK) Kinase screen; settings: Compound concentration 1.0 uM
[4] = target: T1, Megakaryocyte-associated tyrosine-protein kinase (Homo sapiens) (UniProt P42679); assay: MATK (HYL) Kinase screen; settings: Compound concentration 1.0 uM
T1 sequence (whole entry): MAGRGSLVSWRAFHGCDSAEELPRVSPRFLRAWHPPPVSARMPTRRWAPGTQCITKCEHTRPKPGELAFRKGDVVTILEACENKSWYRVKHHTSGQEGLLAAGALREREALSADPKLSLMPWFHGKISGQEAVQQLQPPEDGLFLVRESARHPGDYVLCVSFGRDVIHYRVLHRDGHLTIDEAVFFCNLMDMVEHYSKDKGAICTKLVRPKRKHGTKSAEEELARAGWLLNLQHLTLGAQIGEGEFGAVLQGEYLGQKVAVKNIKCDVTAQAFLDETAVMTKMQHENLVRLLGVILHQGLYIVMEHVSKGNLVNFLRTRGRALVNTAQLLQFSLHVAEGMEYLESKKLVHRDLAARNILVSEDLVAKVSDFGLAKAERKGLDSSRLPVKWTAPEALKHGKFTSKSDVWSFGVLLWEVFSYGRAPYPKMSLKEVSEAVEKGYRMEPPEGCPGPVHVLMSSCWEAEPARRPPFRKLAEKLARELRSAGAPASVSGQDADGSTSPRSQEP

[5] = target: T2, Serine/threonine-protein kinase Nek9 (Homo sapiens) (UniProt Q8TD19); assay: NEK9 Kinase screen; settings: Compound concentration 1.0 uM
T2 sequence (whole entry): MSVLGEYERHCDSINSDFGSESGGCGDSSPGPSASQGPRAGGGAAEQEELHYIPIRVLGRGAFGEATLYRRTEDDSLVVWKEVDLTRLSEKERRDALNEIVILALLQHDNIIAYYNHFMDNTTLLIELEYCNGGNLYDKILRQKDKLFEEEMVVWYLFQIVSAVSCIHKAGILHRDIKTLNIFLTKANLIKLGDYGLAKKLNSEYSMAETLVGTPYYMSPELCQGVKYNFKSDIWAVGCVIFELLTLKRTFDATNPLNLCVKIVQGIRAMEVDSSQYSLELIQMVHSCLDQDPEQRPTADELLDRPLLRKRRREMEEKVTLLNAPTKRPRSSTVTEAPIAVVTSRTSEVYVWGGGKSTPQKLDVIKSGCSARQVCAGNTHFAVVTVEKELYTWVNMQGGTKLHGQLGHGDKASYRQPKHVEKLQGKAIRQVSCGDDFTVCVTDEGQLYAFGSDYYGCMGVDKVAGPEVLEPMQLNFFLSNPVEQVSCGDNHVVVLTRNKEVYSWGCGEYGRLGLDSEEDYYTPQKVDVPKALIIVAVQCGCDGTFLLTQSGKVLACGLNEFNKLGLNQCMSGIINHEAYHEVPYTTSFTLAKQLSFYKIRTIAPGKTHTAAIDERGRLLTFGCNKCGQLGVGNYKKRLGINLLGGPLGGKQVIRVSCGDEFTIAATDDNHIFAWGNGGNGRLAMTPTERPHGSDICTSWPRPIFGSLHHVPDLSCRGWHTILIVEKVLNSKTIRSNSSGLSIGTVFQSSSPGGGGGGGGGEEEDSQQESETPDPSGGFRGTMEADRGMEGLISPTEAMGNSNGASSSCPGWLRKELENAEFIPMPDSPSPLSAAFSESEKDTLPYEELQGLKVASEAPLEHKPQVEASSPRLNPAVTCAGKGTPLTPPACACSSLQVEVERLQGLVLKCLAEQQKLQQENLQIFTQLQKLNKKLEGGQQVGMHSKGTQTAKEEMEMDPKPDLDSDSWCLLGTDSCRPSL

[6] = target: Serine/threonine-protein kinase PAK 2 (Homo sapiens) (UniProt Q13177); assay: PAK2 (PAK65) Kinase screen; settings: Compound concentration 1.0 uM
[7] = target: T3, TGF-beta receptor type-1 (Homo sapiens) (UniProt P36897); assay: TGFBR1 (ALK5) Kinase screen; settings: Compound concentration 1.0 uM
T3 sequence (whole entry): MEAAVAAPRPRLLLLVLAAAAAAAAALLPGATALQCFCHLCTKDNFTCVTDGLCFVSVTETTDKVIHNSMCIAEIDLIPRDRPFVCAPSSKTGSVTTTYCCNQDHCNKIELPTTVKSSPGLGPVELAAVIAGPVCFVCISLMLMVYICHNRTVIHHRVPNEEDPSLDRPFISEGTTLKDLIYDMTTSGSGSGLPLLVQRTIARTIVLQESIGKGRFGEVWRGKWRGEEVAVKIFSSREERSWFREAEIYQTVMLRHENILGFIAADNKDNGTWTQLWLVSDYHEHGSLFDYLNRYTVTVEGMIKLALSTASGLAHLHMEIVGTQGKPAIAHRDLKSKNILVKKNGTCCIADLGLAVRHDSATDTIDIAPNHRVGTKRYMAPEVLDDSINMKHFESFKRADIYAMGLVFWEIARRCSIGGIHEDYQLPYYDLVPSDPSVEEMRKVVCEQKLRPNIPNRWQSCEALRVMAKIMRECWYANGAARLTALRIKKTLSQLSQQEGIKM

[8] = target: Histamine H2 receptor (Homo sapiens) (UniProt P25021); settings: Compound concentration 10.0 uM
[9] = target: Beta-3 adrenergic receptor (Homo sapiens) (UniProt P13945); settings: Compound concentration 10.0 uM

Measured: inhibition

Sequence of Histamine H2 receptor (Homo sapiens) (P25021 whole entry): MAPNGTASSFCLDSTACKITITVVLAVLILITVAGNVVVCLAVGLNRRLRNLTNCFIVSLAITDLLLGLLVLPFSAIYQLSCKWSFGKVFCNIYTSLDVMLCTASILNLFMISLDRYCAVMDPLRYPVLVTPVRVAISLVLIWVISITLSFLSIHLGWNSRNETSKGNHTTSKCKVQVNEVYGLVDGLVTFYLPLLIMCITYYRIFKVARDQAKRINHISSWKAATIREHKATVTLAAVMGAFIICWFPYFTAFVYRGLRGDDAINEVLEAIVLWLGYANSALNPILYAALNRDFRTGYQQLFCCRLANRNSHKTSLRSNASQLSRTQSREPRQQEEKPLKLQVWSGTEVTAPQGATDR
Sequence of Mitogen-activated protein kinase kinase kinase 14 (Homo sapiens) (Q99558 whole entry, looked up): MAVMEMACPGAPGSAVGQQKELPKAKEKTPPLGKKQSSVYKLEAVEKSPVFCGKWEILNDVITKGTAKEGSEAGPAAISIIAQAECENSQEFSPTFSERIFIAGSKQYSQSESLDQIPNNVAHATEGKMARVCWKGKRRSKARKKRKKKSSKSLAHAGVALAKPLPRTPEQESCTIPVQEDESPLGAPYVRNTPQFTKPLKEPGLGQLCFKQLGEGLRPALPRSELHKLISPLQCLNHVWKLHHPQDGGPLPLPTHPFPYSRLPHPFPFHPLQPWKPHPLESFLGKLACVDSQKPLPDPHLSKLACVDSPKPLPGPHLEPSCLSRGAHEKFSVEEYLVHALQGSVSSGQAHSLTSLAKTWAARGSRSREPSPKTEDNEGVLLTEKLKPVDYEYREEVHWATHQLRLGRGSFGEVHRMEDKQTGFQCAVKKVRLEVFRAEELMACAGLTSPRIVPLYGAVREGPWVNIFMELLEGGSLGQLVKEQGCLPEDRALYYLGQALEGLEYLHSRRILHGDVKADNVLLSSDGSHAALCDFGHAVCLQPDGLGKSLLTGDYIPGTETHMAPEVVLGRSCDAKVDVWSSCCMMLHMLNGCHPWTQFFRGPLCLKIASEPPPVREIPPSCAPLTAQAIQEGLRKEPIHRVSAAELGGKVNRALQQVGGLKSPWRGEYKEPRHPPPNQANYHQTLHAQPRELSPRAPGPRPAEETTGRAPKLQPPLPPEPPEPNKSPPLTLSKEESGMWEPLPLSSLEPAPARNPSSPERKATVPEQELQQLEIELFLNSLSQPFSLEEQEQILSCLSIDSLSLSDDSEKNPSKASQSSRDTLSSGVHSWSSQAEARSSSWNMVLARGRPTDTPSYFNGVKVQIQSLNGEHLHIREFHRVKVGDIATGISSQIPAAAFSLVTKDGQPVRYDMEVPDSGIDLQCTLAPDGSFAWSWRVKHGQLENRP
Sequence of Serine/threonine-protein kinase PAK 2 (Homo sapiens) (Q13177 whole entry): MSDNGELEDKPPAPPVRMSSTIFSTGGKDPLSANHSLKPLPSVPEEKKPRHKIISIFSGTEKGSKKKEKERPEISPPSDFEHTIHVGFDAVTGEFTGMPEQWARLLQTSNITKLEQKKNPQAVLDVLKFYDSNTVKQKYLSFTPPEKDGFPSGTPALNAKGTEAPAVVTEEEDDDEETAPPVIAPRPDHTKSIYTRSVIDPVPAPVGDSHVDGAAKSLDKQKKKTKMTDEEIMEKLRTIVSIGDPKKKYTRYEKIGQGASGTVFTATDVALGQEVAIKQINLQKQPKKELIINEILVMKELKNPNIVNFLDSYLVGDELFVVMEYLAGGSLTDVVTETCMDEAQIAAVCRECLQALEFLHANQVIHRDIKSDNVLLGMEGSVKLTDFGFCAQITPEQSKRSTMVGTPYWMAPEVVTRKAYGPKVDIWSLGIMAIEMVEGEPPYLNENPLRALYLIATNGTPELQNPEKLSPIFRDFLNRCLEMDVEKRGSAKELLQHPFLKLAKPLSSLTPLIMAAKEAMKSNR
Sequence of Tyrosine-protein kinase Lck (Homo sapiens) (P06239 2-509 limits assumed): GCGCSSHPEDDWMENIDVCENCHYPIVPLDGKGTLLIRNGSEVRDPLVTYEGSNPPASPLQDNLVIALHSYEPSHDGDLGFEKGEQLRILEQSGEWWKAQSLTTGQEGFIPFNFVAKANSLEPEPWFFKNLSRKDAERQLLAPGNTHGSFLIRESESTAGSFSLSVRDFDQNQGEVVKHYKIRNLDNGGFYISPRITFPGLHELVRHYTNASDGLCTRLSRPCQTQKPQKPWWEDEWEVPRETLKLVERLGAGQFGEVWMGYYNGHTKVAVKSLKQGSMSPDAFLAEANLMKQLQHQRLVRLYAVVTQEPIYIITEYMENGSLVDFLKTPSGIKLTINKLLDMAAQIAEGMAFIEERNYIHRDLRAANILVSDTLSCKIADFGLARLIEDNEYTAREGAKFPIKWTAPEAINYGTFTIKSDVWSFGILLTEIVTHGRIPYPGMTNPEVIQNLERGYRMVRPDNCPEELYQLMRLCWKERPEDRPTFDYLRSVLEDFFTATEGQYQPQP
Sequence of Casein kinase I isoform epsilon (Homo sapiens) (P49674 whole entry, looked up, canonical isoform): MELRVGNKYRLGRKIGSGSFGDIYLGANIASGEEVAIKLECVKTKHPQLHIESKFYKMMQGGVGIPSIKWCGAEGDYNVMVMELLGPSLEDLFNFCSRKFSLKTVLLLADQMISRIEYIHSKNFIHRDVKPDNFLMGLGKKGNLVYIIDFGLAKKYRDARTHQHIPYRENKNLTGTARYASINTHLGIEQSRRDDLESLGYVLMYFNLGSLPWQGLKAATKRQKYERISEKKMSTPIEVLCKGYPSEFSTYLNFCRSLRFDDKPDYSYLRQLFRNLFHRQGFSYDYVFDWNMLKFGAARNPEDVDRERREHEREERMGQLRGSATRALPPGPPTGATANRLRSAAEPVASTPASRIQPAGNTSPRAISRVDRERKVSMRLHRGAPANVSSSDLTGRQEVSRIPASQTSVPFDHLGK
Sequence of Beta-3 adrenergic receptor (Homo sapiens) (P13945 whole entry, looked up): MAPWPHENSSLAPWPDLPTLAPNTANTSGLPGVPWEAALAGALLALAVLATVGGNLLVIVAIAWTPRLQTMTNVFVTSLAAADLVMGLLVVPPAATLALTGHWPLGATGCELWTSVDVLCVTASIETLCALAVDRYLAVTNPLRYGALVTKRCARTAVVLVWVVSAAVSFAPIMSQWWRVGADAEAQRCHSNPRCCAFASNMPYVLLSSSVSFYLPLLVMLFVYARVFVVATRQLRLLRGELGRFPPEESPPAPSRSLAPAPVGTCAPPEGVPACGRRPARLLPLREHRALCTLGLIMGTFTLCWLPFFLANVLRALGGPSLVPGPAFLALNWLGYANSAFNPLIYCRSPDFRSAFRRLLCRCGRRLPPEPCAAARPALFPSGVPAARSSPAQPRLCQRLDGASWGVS

C[C@@H]1CN(c2cc(-c3n[nH]c4ccc(OC5(C)CC5)cc34)ncn2)C[C@H](C)O1 [MLi-2]
inactive: [1] 8.14% | [2] 10.4% | [3] 78.8% | [4] 3.28% | [5] -0.999% | [6] 8.73% | [7] 0.904% | [8] 2% | [9] 21%
